Patent US20240300987A1, “TRAP1 INHIBITOR AND USE THEREOF” (SMARTIN BIO INC., priority 2021, published 2024)
Entries after “also recorded” stand apart in the source; their conditions may differ.

Key:
[1] = target: T1, human full-length TRAP1 protein (Homo sapiens, UniProt Q12931); experiment: Fluorescence polarization (FP) analysis using SB-TM2 probe (client-binding site); conditions: for IC50: FP analysis using SB-TM2; for Activity compared to that of SMX: TRAP1 binding, relative to SMX of the same table; for binding capacity compared to that of SMX (MitoQ): result in words
T1 construct: containing human full-length TRAP1 protein (400 nM); hexahistidine tag followed by TEV protease cleavage site (N, cleaved yes); made in house; host or cells: E. coli BL21 (DE3)
T1 sequence (Q12931 60-704): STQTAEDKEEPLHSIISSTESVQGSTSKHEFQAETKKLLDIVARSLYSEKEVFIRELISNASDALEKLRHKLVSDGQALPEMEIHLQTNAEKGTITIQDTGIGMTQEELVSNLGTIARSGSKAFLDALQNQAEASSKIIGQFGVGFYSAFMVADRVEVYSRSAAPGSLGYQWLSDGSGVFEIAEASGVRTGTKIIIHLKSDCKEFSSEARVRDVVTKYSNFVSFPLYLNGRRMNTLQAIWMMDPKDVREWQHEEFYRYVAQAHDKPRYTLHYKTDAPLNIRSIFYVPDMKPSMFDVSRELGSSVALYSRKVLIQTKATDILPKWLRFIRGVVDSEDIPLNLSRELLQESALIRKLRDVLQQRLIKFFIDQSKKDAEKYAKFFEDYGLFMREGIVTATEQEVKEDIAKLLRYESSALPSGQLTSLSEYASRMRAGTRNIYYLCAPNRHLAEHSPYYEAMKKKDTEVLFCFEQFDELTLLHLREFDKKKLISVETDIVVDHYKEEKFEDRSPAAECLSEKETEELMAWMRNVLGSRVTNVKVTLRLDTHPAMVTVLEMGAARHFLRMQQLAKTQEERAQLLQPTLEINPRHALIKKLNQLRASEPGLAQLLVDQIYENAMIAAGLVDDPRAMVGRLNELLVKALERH
Method: The substance to be analyzed (at a final volume of 100 μL) was added to FP buffer ([…], 2.7 mM KCl, 4.3 mM Na2HPO4, 1.4 mM KH2PO4 (pH 7.3), 1 mM DTT, 2 mM MgCl2, and 0.1 mg/mL BSA) containing human full-length TRAP1 protein (400 nM) and SB-TM2 probe (100 nM) and then reacted at room temperature for 1 hour (96-well plate). Using a SYNERGY NEO microplate reader, FP was measured at an excitation wavelength set to 440 nm and an emission wavelength set to 500 nm.

22Rv1 cells = experiment: In vivo mouse xenograft; design: species or system mice; conditions: 3 mg/Kg intraperitoneally daily
Method: Immunodeficient athymic nude mice (male, 8 weeks old) were purchased from OrientBio. The mice were maintained in a pathogen-free facility (12-hour dark/light cycle) at the UNIST In Vivo Research Center and supplied with standard diet and water. All animal experiments were approved by UNIST ([…]-19-11). 22Rv1 cells (1×10^7) were injected subcutaneously into both sides of the nude mice. When the tumor size reached approximately 100 mm^3, 3 mg/Kg drugs (MitoQ, SB-U014, and SB-U015) and vehicle (DMSO) dissolved in 20% cremophor EL (Sigma) in PBS were administered intraperitoneally daily. The tumor volume was measured daily using an electronic caliper and calculated using the following equation: V=½× (width) 2× length. When the experiment was completed, animals were euthanized, and the tumor was collected for histology and western blot. Band intensities were quantified using ImageJ software (National Institute of Health, USA). In this case, western blot was performed in the same manner as described above.

HIF1α = experiment: Drug activity assay using MIO-M1 HRE/GFP cell line under hypoxia; type: cell-based; conditions: for IC50: MIO-M1, 24 h, HIF1α inhibitory activity in MIO-M1 cells, 1% O2 24 hours; for Activity compared to that of SMX: HIF1α inhibition, relative to SMX of the same table
Method: After transfection (jetPRIME kit) of MIO-M1 Müller cells with 5HRE/GFP plasmid (Addgene, #46926), the cells transfected with the plasmid were selected using 1 mg/ml of G418 (Neomycin), a selectable marker. A stable cell line was constructed by selecting cells, growing in a colony form, from single cells. The prepared MIO-M1-HRE/GFP stable cell line was dispensed into a 96-well plate and treated with drugs at different concentrations the next day. After being exposed to a hypoxic environment (1% O2) for 24 hours, the GFP (Ex/Em: 488/507) fluorescence signal was measured using a SYNERGY NEO microplate reader (BioTek Instrument). The relative fluorescence value was calculated on the basis of 100% of the negative control group.

TRAP1 [2] = target: T2, TRAP1 (Homo sapiens, UniProt Q12931); experiment: ATPase activity assay (PiColorLock Gold Phosphate Detection Kit); type: biochemical; design: hexahistidine tag followed by TEV protease cleavage site (N, cleaved yes); made in house; host or cells: E. coli BL21 (DE3); conditions: result in words
T2 sequence (Q12931 60-704): T1 sequence (Q12931 60-704)
Method: The ATPase activity of TRAP1 was measured using the PiColorLock Gold Phosphate Detection Kit (Abcam). Then, 0.5 µM TRAP1 (wild-type or mutation) was pre-incubated along with inhibitors at various concentrations for 30 minutes and then incubated with 0.2 mM ATP at 37° C. for 3 hours in ATPase activity assay buffer containing 50 mM Tris-HCl, 20 mM KCl, and 6 mM MgCl (pH 7.4). Next, 20 µL of a mixture of a PiColorLock Gold reagent and an accelerator (100:1) was added to each sample (100 μL). After 5 minutes of incubation, 10 μL of a stabilizer was added to stop color development. Absorbance was measured at 620 nm using a microplate reader (Synergy NEO, BioTek). The background signal was normalized by subtracting the absorbance of unreacted samples.

OIR mice = experiment: Oxygen-induced retinopathy (OIR) model, CD31 whole-mount staining of retina; type: in vivo; conditions: intravitreal injection at P12 or eye drop administration P12 to P17
Description: As TRAP1+/+(wild-type), TRAP1+/−(hetero), and TRAP1−/− (knockout) experimental mice, Black6 J strain mice were used. On the 7th day after birth, a baby mouse and a mother mouse were placed in an in vivo chamber (Coy-lab) and supplied with high oxygen (75% O2). On the 12th day after birth, the baby mouse was taken out of the in vivo chamber. Then, a surrogate mother was put thereinto, and normal oxygen (21% O2) was supplied. Then, the eyeball of the baby mouse was removed on the 17th day after birth and used for experiments.
In the process of forming the in vivo oxygen-induced retinopathy (OIR) model, the baby mouse was treated with eye drops for 6 days, from the day when being taken out to normal oxygen after being supplied with high oxygen until the day their eyes were collected (on the 12th day to 17th day after birth). Treatment was performed three times a day at intervals of 4 hours. As a drug treatment method, Mito Q was diluted to a concentration of 1 mM in Liposic and dropped 10 uL into the eyes of the baby mouse. Then, the eyes were allowed to blink for 1 minute. After wiping the residual amount outside the eyeball with a cotton swab, the mouse was returned to the care of the mother mouse. […]

TRAP1 [3] = target: T2, TRAP1; experiment: Protein expression analysis by western blot in 22Rv1 cells, TRAP1 inhibition markers; type: cell-based; design: endogenous in cells; host or cells: 22Rv1; conditions: 5 µM of each compound, 2 hours
Method: Human cancer cell line 22Rv1 was purchased from the American Type Culture Collection (ATCC) and maintained as recommended by the supplier. Briefly, cancer cells were incubated in a DMEM or RPMI medium (GIBCO) containing 10% fetal bovine serum (FBS; ATCC) and 1% penicillin/streptomycin (GIBCO) at 37° C. in a humidified atmosphere of 5% CO2. The cells were not incubated for more than 6 months.
The 22Rv1 cells were treated with 5 µM of each compound, cultured for 2 hours, and then analyzed by western blot.
Cell lysates were separated by SDS-PAGE and transferred to a PVDF membrane. The membrane was blocked with 10% skim milk in TBST (TBS containing 0.05% Tween-20) for 1 hour at room temperature and incubated with primary antibodies overnight at 4° C. The membrane was washed with TBST three times for 1 hour and incubated with secondary antibodies (1:5000) diluted in 10% skim milk in TBST for 1 hour. The membrane was washed with TBST three times and visualized using an enhanced chemiluminescence detection kit (BioRad).

[4] = 22Rv1 xenograft in nude mice, compared to DMSO

IC50 ([1]; Table 1, alkyl-TPPs)	Activity compared to that of SMX ([1]; Table 1)	IC50 (HIF1α; Table 6, alkyl-TPPs)	SDHB and SIRT3 expression (TRAP1 inhibition) (TRAP1 [3])	Structure (SMILES)	binding capacity compared to that of SMX (MitoQ) [1]	Activity compared to that of SMX (HIF1α; Table 6)	also measured
–	–	–	–	COc1cc(C)c(CCCCCCCCCC[P+](c2ccccc2)(c2ccccc2)c2ccccc2)cc1OC [SB-U015, (10-(4,5-Dimethoxy-2-methylphenyl)decyl)triphenylphosphonium]	–	–	IC50 ([1]; Table 4, other synthetic compounds): 1.83 ± 0.285 µM; Activity compared to that of SMX ([1]; Table 4): 0.22; tumor size (22Rv1 cells; [4]): the tumor size became smaller; tumor weight (22Rv1 cells; [4]): the tumor weight decreased; Akt, Cdk4, and Hsp70 in tumors (western blot) (22Rv1 cells; 22Rv1 xenograft tumors): without causing changes in Akt, Cdk4, and Hsp70; SDHB, SIRT3, p-AMPK and CHOP in tumors (western blot) (22Rv1 cells; 22Rv1 xenograft tumors): decreases in SDHB and SIRT3, activated AMPK (p-AMPK), and induced the mitochondrial unfolded protein response (CHOP); IC50 (HIF1α; Table 9, other synthetic compounds): 0.0887 ± 0.0058 µM; Activity compared to that of SMX (HIF1α; Table 9): 3.14; TRAP1 ATPase activity with increasing concentration (TRAP1 [2]): did not show a tendency that the ATPase activity decreased in a concentration-dependent manner
–	–	–	–	COC1=C(OC)C(=O)C(C[P+](c2ccccc2)(c2ccccc2)c2ccccc2)=C(C)C1=O [MitoQ^S, ((4,5-Dimethoxy-2-methyl-3,6-dioxocyclohexa-1,4-dien-1-yl)methyl)triphenylphosphonium]	–	–	avascular and neovascular areas in the retina of the OIR model (OIR mice): both avascular and neovascular areas are significantly reduced; also recorded: significantly reduces both avascular and neovascular areas
0.384 ± 0.0392 µM	1.62	0.034 ± 0.0392 µM	strong effects	CCCCCCCCCCCCCC[P+](c1ccccc1)(c1ccccc1)c1ccccc1 [TPP-14, Tetradecyltriphenylphosphonium]	superior to that of SMX	13.76	–
0.309 ± 0.026 µM	2.01	0.03 ± 0.026 µM	strong effects	CCCCCCCCCCCCCCCC[P+](c1ccccc1)(c1ccccc1)c1ccccc1 [TPP-16, Hexadecyltriphenylphosphonium]	superior to that of SMX; also recorded: twice as strong as that of SMX	15.59	binding capacity compared to that of SMX (MitoQ) ([1]; listed as hexadecyl-TPP): superior to that of SMX; also recorded: twice as strong as that of SMX
